Laboratory results as given in BigSolDB 2.1.

CCOc1ccc2ccccc2c1C(=O)N[C@@H]1C(=O)N2[C@@H]1SC(C)(C)[C@@H]2C(=O)[O-].[Na+]
solubility (mole fraction)
Details | 278.15 K | 283.15 K | 288.15 K | 293.15 K | 298.15 K | 303.15 K | 308.15 K | 313.15 K | 318.15 K
in acetone | 4.88e-05 | 7.1e-05 | 0.000106 | 0.000158 | 0.000202 | 0.000255 | 0.000309 | 0.000353 | 0.000401
in acetonitrile | 2.25e-05 | 2.97e-05 | 4.09e-05 | 6.27e-05 | 7.46e-05 | 9.3e-05 | 0.000111 | 0.000128 | 0.000144
in ethanol | 0.000161 | 0.000201 | 0.000246 | 0.00032 | 0.000372 | 0.000442 | 0.000509 | 0.000562 | 0.000615
in isopropanol | 0.000155 | 0.000177 | 0.000201 | 0.000229 | 0.000261 | 0.000297 | 0.000337 | 0.000367 | 0.000395
in methanol | 0.000605 | 0.000803 | 0.00101 | 0.00121 | 0.00149 | 0.00173 | 0.002 | 0.00226 | 0.00251
in n-butyl acetate | 2.14e-05 | 3.21e-05 | 4.3e-05 | 5.85e-05 | 7.24e-05 | 8.6e-05 | 9.63e-05 | 0.000108 | 0.000117
